Reference: patent US20050124498A1, “Halobenzyl substituted phenylaceto esters and amides and use thereof for prevention of harmful organisms” (priority 2002, published 2005)

Assays:
Sphaerotheca fuliginea = assay: Sphaerotheca test (cucumber)/protective; format: in vivo; settings: Podosphaera fuliginea, 168 h, protective, application rate 100 g/ha, evaluation 7 days after inoculation, read-out: efficacy
Protocol: (§1) Sphaerotheca test (cucumber)/protective [table] To produce a suitable preparation of active compound, 1 part by weight of active compound is mixed with the stated amounts of solvent and emulsifier, and the concentrate is diluted with water to the desired concentration. To test for protective activity, young plants are sprayed with the preparation of active compound at the stated application rate. After the spray coating has dried on, the plants are inoculated with an aqueous spore suspension of Sphaerotheca fuliginea. The plants are then placed in a greenhouse at about 23° C. and about 70% relative atmospheric humidity.

[1] = system: apple scab pathogen Venturia inaequalis; assay: Venturia test (apple)/protective; format: in vivo; settings: 240 h, protective, application rate 100 g/ha, evaluation 10 days after inoculation, read-out: efficacy
Protocol: Venturia test (apple)/protective […] To produce a suitable preparation of active compound, 1 part by weight of active compound is mixed with the stated amounts of solvent and emulsifier, and the concentrate is diluted with water to the desired concentration. To test for protective activity, young plants are sprayed with the preparation of active compound at the stated application rate. After the spray coating has dried on, the plants are inoculated with an aqueous conidia suspension of the apple scab pathogen Venturia inaequalis and then remain in an incubation cabin at about 20° C. and 100% relative atmospheric humidity for 1 day. The plants are then placed in a greenhouse at about 21° C. and a relative atmospheric humidity of about 90%.

[2] = system: army worm (Spodoptera frugiperda); assay: Spodoptera frugipereda test/synthetic feed; format: in vivo; settings: larva (L3) on synthetic feed, concentration of active compound 500 ppm
Protocol: Spodoptera frugipereda test/synthetic feed [table] To produce a suitable preparation of active compound, 1 part by weight of active compound is mixed with the stated amount of solvent and the stated amount of emulsifier, and the concentrate is diluted with emulsifier-containing water to the desired concentration. A stated amount of the preparation of active compound of the desired concentration is pipetted onto a standardized amount of synthetic feed. In 6 replications, in each case one larva (L3) of the army worm (Spodoptera frugiperda) is placed onto the feed. After the desired period of time, the kill in % is determined. 100% means that all animals have been killed; 0% means that none of the animals have been killed.

[3] = system: apple mildew pathogen Podosphaera leucotricha; assay: Podosphaera test (apple)/protective; format: in vivo; settings: 240 h, protective, application rate 100 g/ha, evaluation 10 days after inoculation, read-out: efficacy
Protocol: as §1, with “Podosphaera” for “Sphaerotheca”, “(apple)/protective” for “(cucumber)/protective”, “the apple mildew pathogen Podosphaera leucotricha.” for “Sphaerotheca fuliginea.”

[4] = system: Erysiphe graminis f.sp. hordei; assay: Erysiphe test (barley)/protective; format: in vivo; settings: Blumeria graminis, 168 h, protective, application rate 500 g/ha, evaluation 7 days after inoculation, read-out: efficacy
Protocol: Erysiphe test (barley)/protective [table] To produce a suitable preparation of active compound, 1 part by weight of active compound is mixed with the stated amounts of solvent and emulsifier, and the concentrate is diluted with water to the desired concentration. To test for protective activity, young plants are sprayed with the preparation of active compound at the stated application rate. After the spray coating has dried on, the plants are dusted with spores of Erysiphe graminis f.sp. hordei. The plants are placed in a greenhouse at a temperature of about 20° C. and a relative atmospheric humidity of about 80% to promote the development of mildew pustules.

Leptosphaeria nodorum = Leptosphaeria nodorum test (wheat)/protective; format: in vivo; settings: Parastagonospora nodorum, 240 h, protective, application rate 500 g/ha, evaluation 10 days after inoculation, read-out: efficacy
Protocol: Leptosphaeria nodorum test (wheat)/protective [table] To produce a suitable preparation of active compound, 1 part by weight of active compound is mixed with the stated amounts of solvent and emulsifier, and the concentrate is diluted with water to the desired concentration. To test for protective activity, young plants are sprayed with the preparation of active compound at the stated application rate. After the spray coating has dried on, the plants are sprayed with a spore suspension of Leptosphaeria nodorum. The plants remain in an incubation cabin at 20° C. and 100% relative atmospheric humidity for 48 hours. The plants are placed in a greenhouse at a temperature of about 15° C. and a relative atmospheric humidity of 80%.

Phytophthora infestans = assay: whole plant or invertebrate; format: in vivo; settings: in Solanum lycopersicum, 72 h, read-out: efficacy
[5] = system: green peach aphid (Myzus persicae); assay: Myzus test/broad beans; format: in vivo; settings: broad bean seedlings dipped, active compound concentration 100 ppm, after 6 days
Protocol: Myzus test/broad beans [table] To produce a suitable preparation of active compound, 1 part by weight of active compound is mixed with the stated amount of solvent and the stated amount of emulsifier, and the concentrate is diluted with emulsifier-containing water to the desired concentration. Broad bean seedlings (Vicia faba minor) which are infected by the green peach aphid (Myzus persicae) are dipped into a preparation of active compound of the desired concentration and placed into a plastic dish. After the desired period of time, the kill in percent is determined. 100% means that all animals have been killed; 0% means that none of the animals have been killed.

[6] = logP determination by HPLC (EEC Directive 79/831 Annex V.A8); settings: pH 2

Compound	pest or weed control at 100 g/ha (Sphaerotheca fuliginea) [%]	pest or weed control at 100 g/ha [1] [%]	kill rate [2] [%]	pest or weed control at 100 g/ha [3] [%]	pest or weed control at 500 g/ha [4] [%]	chromatographic logP (physchem; pH 2, log P (pH 2))	pest or weed control at 500 g/ha (Leptosphaeria nodorum) [%]	pest or weed control at 100 g/ha (Phytophthora infestans) [%]	chromatographic logP (physchem; logP)	kill [5] [%]	log P (pH 2)	chromatographic logP [6]
CO/N=C(/C(=O)OC)c1c(F)cccc1Oc1ncnc(Oc2cccc(Cl)c2C)c1F [Example 1, methyl {2-[6-(3-chloro-2-methylphenoxy)-5-fluoropyrimidin-4-yloxy]-6-fluorophenyl}methoxyiminoacetate]	≥ 98	≥ 97	≥ 98	≥ 82	≥ 98	4.23						
CNC(=O)/C(=N/OC)c1c(F)cccc1Oc1ncnc(Oc2ccccc2Cl)c1F [Example 2, 2-{2-[6-(2-chlorophenoxy)-5-fluoropyrimidin-4-yloxy]-6-fluorophenyl}-2-methoxyimino-N-methylacetamide]	≥ 98	≥ 97		≥ 82		3.1	≥ 98	≥ 86				
CO/N=C(/C(=O)OC)c1c(F)cccc1COc1ccccc1C [Example 8, methyl (2-fluoro-6-o-tolyloxymethylphenyl)methoxyiminoacetate]	≥ 98	≥ 97		≥ 82	≥ 98	3.65						
CO/N=C(/C(=O)OC)c1c(F)cccc1Oc1ncnc(Oc2cccc(Cl)c2Cl)c1F [Example 12]	≥ 98	≥ 97		≥ 82	≥ 98			≥ 86	4.16			
CO/N=C(/C(=O)OC)c1c(F)cccc1Oc1ncnc(Oc2ccccc2Cl)c1F [Example 14]	≥ 98	≥ 97		≥ 82	≥ 98			≥ 86	3.73			
CNC(=O)/C(=N/OC)c1ccc(F)cc1Oc1ncnc(Oc2ccccc2F)c1F [Example 16]							≥ 98		3.03			
CNC(=O)/C(=N/OC)c1ccc(F)cc1Oc1ncnc(Oc2ccc(Cl)cc2)c1F [Example 22]							≥ 98		3.32			
CNC(=O)/C(=N/OC)c1ccc(F)cc1Oc1ncnc(Oc2ccccc2C(F)(F)F)c1F [Example 31]	≥ 98	≥ 97		≥ 82			≥ 98	≥ 86	3.26			
CNC(=O)/C(=N/OC)c1c(F)cccc1Oc1ncnc(Oc2cccc(Cl)c2C)c1F [Example 45]	≥ 98	≥ 97		≥ 82			≥ 98	≥ 86	3.6			
CNC(=O)/C(=N/OC)c1c(F)cccc1Oc1cc(Oc2cccc(Cl)c2Cl)ncn1 [Example 46]	≥ 98	≥ 97		≥ 82			≥ 98	≥ 86	3.23			
CNC(=O)/C(=N/OC)c1c(F)cccc1Oc1cc(Oc2ccccc2Cl)ncn1 [Example 47]	≥ 98	≥ 97		≥ 82			≥ 98	≥ 86	2.79			
CNC(=O)/C(=N/OC)c1c(F)cccc1Oc1ncnc(Oc2cccc(Cl)c2Cl)c1F [Example 48]	≥ 98	≥ 97		≥ 82			≥ 98	≥ 86	3.5			
CO/N=C(/C(=O)OC)c1c(F)cccc1CO/N=C(\C)c1cccc(C(F)(F)F)c1 [Example 50]	≥ 98	≥ 97		≥ 82	≥ 98			≥ 86	4.27			
CNC(=O)/C(=N/OC)c1c(F)cccc1CO/N=C(\C)c1cccc(C(F)(F)F)c1 [Example 51]	≥ 98	≥ 97		≥ 82	≥ 98			≥ 86	3.71			
CNC(=O)/C(=N\OC)c1c(F)cccc1CO/N=C(\C)c1cccc(C(F)(F)F)c1 [Example 56]	≥ 98	≥ 97		≥ 82				≥ 86	3.8	100		
CNC(=O)/C(=N/OC)c1c(F)cccc1Oc1cc(Oc2cccc(Cl)c2C)ncn1 [Example 57]	≥ 98	≥ 97		≥ 82			≥ 98	≥ 86	3.24			
CO/N=C(/C(=O)OC)c1c(F)cccc1CBr [Example (VIII-1), methyl (2-bromomethyl-6-fluorophenyl)methoxyiminoacetate]						2.58					2.87	
Cc1cccc(F)c1C(=O)C#N [Example (XX-1), 2-fluoro-6-methylbenzoyl cyanide]												2.55
